Test results as given in ChEMBL document CHEMBL4814071, “Synthesis and antibacterial study of cell-penetrating peptide conjugated trifluoroacetyl and thioacetyl lysine modified peptides” (Eur J Med Chem, 2021).
Structures can show the parent of a compound that is named as a salt. Activity calls are given as the source filed them. The calls are words filed in the database; no cut-off is given here. Where a SMILES comes first, the peptide text is derived from it. The star is where a group is joined. Tfa = O=C(C(F)(F)F)*

Key:
[1] = test system: Staphylococcus aureus; assay: Synergistic antibacterial activity against Staphylococcus aureus assessed as fractional inhibitory concentration index incubated for 24 hrs in presence of streptomycin; type: functional
[2] = test system: Lipid bilayer; assay: Binding affinity to bacterial inner membrane mimic POPE/POPG (3:1) LUVs assessed as increase in intensity by one-dimensional 19F NMR based analysis
[3] = test system: Lipid bilayer; assay: Binding affinity to mammalian membrane mimic DOPC/40% cholesterol assessed as calcein leakage at 20 uM by fluorescence based assay; type: ADME
[4] = test system: Pseudomonas aeruginosa; assay: Potentiation of polymyxin B-induced antibacterial activity against Pseudomonas aeruginosa assessed as polymyxin B MIC incubated for 24 hrs by microplate reader method; type: functional
[5] = test system: Staphylococcus aureus; assay: Potentiation of streptomycin-induced antibacterial activity against Staphylococcus aureus assessed as streptomycin MIC incubated for 24 hrs by microplate reader method; type: functional
[6] = test system: Escherichia coli; assay: Potentiation of polymyxin B-induced antibacterial activity against Escherichia coli assessed as polymyxin B MIC incubated for 24 hrs by microplate reader method; type: functional
[7] = Induction of yeast killing at 50 uM incubated for 72 hrs in presence of Ura3 and absence of FOA by absorbance based analysis; conditions: saccharomyces cerevisiae
[8] = target: NAD-dependent histone deacetylase SIR2 (Saccharomyces cerevisiae S288c) (UniProt P06700); assay: Inhibition of yeast sirtuin2-mediated Ura3 transcriptional silencing at telomeric locus assessed as yeast killing at 50 uM incubated for 72 hrs in presence of FOA by absorbance based analysis
[9] = test system: Escherichia coli; assay: Antibacterial activity against Escherichia coli assessed as reduction in microbial growth after 24 hrs in presence of polymyxin B by microplate reader method; type: functional
[10] = test system: Staphylococcus aureus; assay: Antibacterial activity against Staphylococcus aureus assessed as reduction in microbial growth after 24 hrs in presence of streptomycin by microplate reader method; type: functional
[11] = test system: Staphylococcus aureus; assay: Antibacterial activity against Staphylococcus aureus assessed as reduction in microbial growth after 24 hrs by microplate reader method; type: functional
[12] = test system: Escherichia coli; assay: Antibacterial activity against Escherichia coli assessed as reduction in microbial growth after 24 hrs by microplate reader method; type: functional
[13] = test system: Pseudomonas aeruginosa; assay: Antibacterial activity against Pseudomonas aeruginosa assessed as reduction in microbial growth after 24 hrs by microplate reader method; type: functional
[14] = test system: Staphylococcus aureus; assay: Antibiofilm activity against Staphylococcus aureus assessed as biofilm eradication incubated for 24 hrs by crystal violet staining assay; type: functional
[15] = test system: Escherichia coli; assay: Antibiofilm activity against Escherichia coli assessed as biofilm eradication incubated for 24 hrs by crystal violet staining assay; type: functional
[16] = test system: Staphylococcus aureus; assay: Antibiofilm activity against Staphylococcus aureus assessed as inhibition of biofilm formation incubated for 48 hrs by crystal violet staining assay; type: functional
[17] = test system: Escherichia coli; assay: Antibiofilm activity against Escherichia coli assessed as as inhibition of biofilm formation incubated for 48 hrs by crystal violet staining assay; type: functional
[18] = test system: Cell membrane; assay: Disruption of membrane integrity in Escherichia coli at 2 times MIC measured after 20 mins by SEM analysis
[19] = test system: Cell membrane; assay: Disruption of membrane integrity in Staphylococcus aureus at 2 times MIC measured after 20 mins by SEM analysis
[20] = test system: Escherichia coli; assay: Synergistic antibacterial activity against Escherichia coli assessed as fractional inhibitory concentration index incubated for 24 hrs in presence of Polymyxin B; type: functional
[21] = test system: Pseudomonas aeruginosa; assay: Synergistic antibacterial activity against Pseudomonas aeruginosa assessed as fractional inhibitory concentration index incubated for 24 hrs in presence of Polymyxin B; type: functional
[22] = test system: Lipid bilayer; assay: Binding affinity to bacterial inner membrane mimic DOPE/DOPG (3:1) large unilamellar vesicles assessed as calcein leakage at 20 uM by fluorescence based assay
[23] = Hemolytic activity against mouse RBC at 1000 uM measured after 1 hr by microplate reader analysis; type: cell-based, Erythrocyte; conditions: mouse red blood cells (erythrocytes), read-out: Activity
[24] = test system: HeLa; assay: Cytotoxicity against human HeLa cells assessed as reduction in cell viability incubated for 48 hrs by MTT assay; type: cell-based
[25] = test system: BE(2)-C; assay: Cytotoxicity against human BE(2)-C cells assessed as reduction in cell viability incubated for 48 hrs by MTT assay; type: cell-based
[26] = test system: Staphylococcus aureus; assay: Antibiofilm activity against Staphylococcus aureus assessed as biofilm eradication at 2XMBEC incubated for 12 hrs by SYTO9/PI staining based microscopic analysis; type: functional, organism-based
[27] = test system: Escherichia coli; assay: Antibiofilm activity against Escherichia coli assessed as biofilm eradication at 2XMBEC incubated for 12 hrs by SYTO9/PI staining based microscopic analysis; type: functional, organism-based
[28] = Inhibition of transcriptional machinery using Puc19-lacCONS plasmid DNA and Escherichia coli RNA polymerase-sigma70 holoenzyme at 40 uM incubated for 35 mins followed by NTP addition for 30 mins by spectrofluorometer analysis; type: functional; conditions: time 65.0 min
[29] = test system: Pseudomonas aeruginosa; assay: Antibacterial activity against Pseudomonas aeruginosa assessed as reduction in microbial growth after 24 hrs in presence of polymyxin B by microplate reader method; type: functional
[30] = test system: Staphylococcus aureus; assay: Potentiation of streptomycin-induced antibacterial activity against Staphylococcus aureus assessed as fold change in streptomycin MIC incubated for 24 hrs by microplate reader method; type: functional

NAD-dependent histone deacetylase SIR2 (Saccharomyces cerevisiae S288c), sequence (P06700 whole entry): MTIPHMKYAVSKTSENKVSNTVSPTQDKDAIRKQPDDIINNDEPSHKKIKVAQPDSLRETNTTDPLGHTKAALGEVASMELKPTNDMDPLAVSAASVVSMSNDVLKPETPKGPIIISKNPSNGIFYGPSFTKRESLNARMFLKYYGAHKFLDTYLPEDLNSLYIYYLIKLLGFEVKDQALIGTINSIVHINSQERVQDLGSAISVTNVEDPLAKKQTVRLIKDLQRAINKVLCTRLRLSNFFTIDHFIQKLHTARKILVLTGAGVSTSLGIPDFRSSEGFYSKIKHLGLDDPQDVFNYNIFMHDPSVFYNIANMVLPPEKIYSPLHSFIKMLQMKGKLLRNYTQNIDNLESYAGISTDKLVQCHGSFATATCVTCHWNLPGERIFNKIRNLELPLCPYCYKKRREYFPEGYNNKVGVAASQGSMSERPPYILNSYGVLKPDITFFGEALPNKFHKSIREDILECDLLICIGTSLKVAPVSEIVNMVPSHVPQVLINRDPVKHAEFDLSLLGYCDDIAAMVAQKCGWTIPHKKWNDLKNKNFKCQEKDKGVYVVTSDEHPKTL

Activity [2]: Active | Activity [3]: < 20% | MIC [4]: 0.1 µM | MIC [5]: 0.38 µM | MIC [6]: 0.05 µM | MIC [9]: 15.6 µM | MIC [10]: 0.31 µM | MIC [11]: 1.5 µM | MIC [12]: 125 µM | MIC [13]: > 250 µM | Activity [18]: inactive | Activity [19]: inactive | Activity [22]: 70% | MIC [29]: 25 µM
SMILES: CC(=O)N[C@@H](CCCCN)C(=O)NCC(=O)N[C@@H](CC(C)C)C(=O)N[C@@H](CCCNC(=N)N)C(=O)N[C@@H](CCCCNC(=O)C(F)(F)F)C(=O)N[C@@H](Cc1ccccc1)C(=O)NCC(=O)N[C@@H](C)C(=O)N[C@@H](CCCCN)C(=O)N[C@@H](CCCNC(=N)N)C(=O)N[C@@H](Cc1cnc[nH]1)C(=O)N[C@@H](CCCNC(=N)N)C(=O)N[C@@H](CS)C(N)=O (Ac-KGLRK(Tfa)FGAKRHRC-NH2)
fractional inhibitory concentration index (FICI) [1]: 0.19 | Activity [7]: Toxic | inhibition [8]: Active | MBEC [14]: 12.5 µM | MBEC [15]: inactive | MBIC [16]: 6.3 µM | MBIC [17]: inactive | fractional inhibitory concentration index (FICI) [20]: 0.36 | fractional inhibitory concentration index (FICI) [21]: 0.36 | hemolysis at 1 h, 1000 µM [23]: < 5% | IC50 [24]: 94.6 µM | IC50 [25]: 78 µM | Activity [26]: Active | Activity [27]: Active | inhibition [28]: Active | fold change (FC) [30]: 6
